{"source": "paper PMC6438725", "about": "(Arthritis & rheumatology (Hoboken, N.J.), 2019)", "target": "DR0401 (HLA-DRB1*04:01) (Homo sapiens, UniProt P01903+P01911, A100K/A169T/F76Y/I96L/K127E/L162R/M171V/N62H/P40V/Q125Y/R42H/S133A/S149N/S66Y/V115G/V209L/W38E)", "test": "Peptide binding to DR0401", "note": "pEC50: −log10 of the molar value. “And” between values parts separate entries of the source, which are not always exact repeats. Equal entries are not always repeated. Non-standard residues stand in square brackets, D forms with d. Residues, ends and D or L forms follow the SMILES beside them. No end group written: not given here. Cit = NC(=O)NCCC[C@H](N)C(=O)O", "data": [{"compound": "CC(C)C[C@H](NC(=O)[C@H](CCCNC(N)=O)NC(=O)[C@H](CC(=O)O)NC(=O)[C@@H](NC(=O)[C@H](Cc1ccccc1)NC(=O)[C@H](CS)NC(=O)[C@H](Cc1ccc(O)cc1)NC(=O)[C@@H](NC(=O)[C@@H](N)CC(=O)O)C(C)C)C(C)C)C(=O)N[C@@H](CCC(=O)O)C(=O)NCC(=O)N[C@@H](CCC(=O)O)C(=O)N[C@H](C(=O)N[C@@H](Cc1ccccc1)C(=O)N[C@@H](Cc1ccccc1)C(=O)N[C@@H](C)C(=O)O)C(C)C", "note": "[agg 568] (H-DVYCFVD[Cit]LEGEVFFA-OH)", "values": [{"measurement": "pEC50", "value": "4.63 and 5.51"}]}, {"compound": "CC[C@H](C)[C@H](NC(=O)[C@@H]1CCCN1C(=O)[C@H](Cc1ccc(O)cc1)NC(=O)[C@H](CCCNC(N)=O)NC(=O)[C@H](CC(C)C)NC(=O)[C@H](CO)NC(=O)CNC(=O)[C@H](CC(=O)O)NC(=O)[C@H](C)NC(=O)[C@H](CC(C)C)NC(=O)[C@H](Cc1c[nH]c2ccccc12)NC(=O)CNC(=O)[C@H](C)NC(=O)[C@H](Cc1ccc(O)cc1)NC(=O)[C@H](CS)NC(=O)[C@@H](N)CCCCN)C(=O)N[C@H](C(=O)O)C(C)C", "note": "[agg 621] (H-KCYAGWLADGSL[Cit]YPIV-OH)", "values": [{"measurement": "pEC50", "value": "5.16 and 5.33"}]}, {"compound": "CC(C)C[C@H](NC(=O)[C@H](CCCNC(N)=O)NC(=O)[C@@H](NC(=O)[C@H](C)NC(=O)[C@H](Cc1ccccc1)NC(=O)[C@H](Cc1ccccc1)NC(=O)[C@@H](NC(=O)[C@@H](N)CCC(=O)O)C(C)C)[C@@H](C)O)C(=O)N[C@@H](CCC(=O)O)C(=O)N[C@@H](CCC(N)=O)C(=O)N[C@@H](Cc1ccccc1)C(=O)N[C@H](C(=O)N[C@@H](Cc1ccccc1)C(=O)N[C@@H](CCC(N)=O)C(=O)N[C@@H](CCC(=O)O)C(=O)O)[C@@H](C)O", "note": "[agg 579] (H-EVFFAT[Cit]LEQFTFQE-OH)", "values": [{"measurement": "pEC50", "value": "4.11 and 4.81"}]}, {"compound": "CC[C@H](C)[C@H](NC(=O)[C@@H]1CCCN1C(=O)[C@H](Cc1ccc(O)cc1)NC(=O)[C@H](CCCNC(N)=O)NC(=O)[C@@H](NC(=O)[C@H](CO)NC(=O)[C@H](CCCNC(N)=O)NC(=O)[C@H](CC(=O)O)NC(=O)[C@H](C)NC(=O)[C@H](CC(C)C)NC(=O)[C@H](Cc1c[nH]c2ccccc12)NC(=O)CNC(=O)[C@H](C)NC(=O)[C@@H](N)CO)C(C)C)C(=O)N[C@@H](CO)C(=O)N[C@@H](CCCCN)C(=O)O", "note": "[agg 298-313] (H-SAGWLAD[Cit]SV[Cit]YPISK-OH)", "values": [{"measurement": "pEC50", "value": "5.72 and 5.53"}]}, {"compound": "VVLLVATEG[Cit]VRVNSAYQDK [cit-Agg84, reference compound]", "values": [{"measurement": "Binding to DR0401 (in words)", "setting": "data not shown", "value": "very low affinity"}]}, {"compound": "CC(C)C[C@H](NC(=O)[C@H](CO)NC(=O)[C@H](Cc1ccc(O)cc1)NC(=O)[C@H](CCCNC(N)=O)NC(=O)[C@@H](NC(=O)[C@@H]1CCCN1C(=O)CNC(=O)[C@@H]1CCCN1C(=O)[C@H](CCCNC(N)=O)NC(=O)[C@H](Cc1ccc(O)cc1)NC(=O)[C@H](Cc1c[nH]cn1)NC(=O)[C@H](Cc1ccccc1)NC(=O)[C@@H](NC(=O)[C@@H](NC(=O)CN)C(C)C)C(C)C)[C@@H](C)O)C(=O)N[C@H](C(=O)N[C@@H](Cc1ccccc1)C(=O)O)[C@@H](C)O", "note": "[agg 477] (H-GVVFHY[Cit]PGPT[Cit]YSLTF-OH)", "values": [{"measurement": "pEC50", "value": "4.83 and < 4.00"}]}, {"compound": "CC(C)C[C@H](NC(=O)[C@H](CS)NC(=O)[C@H](Cc1ccccc1)NC(=O)[C@@H]1CCCN1C(=O)[C@H](CO)NC(=O)[C@@H](N)CC(N)=O)C(=O)N[C@@H](CCC(=O)O)C(=O)N[C@@H](CCCNC(N)=O)C(=O)N[C@H](C(=O)N1CCC[C@H]1C(=O)N[C@@H](CC(C)C)C(=O)NCC(=O)N[C@@H](CO)C(=O)N1CCC[C@H]1C(=O)N[C@@H](CC(=O)O)C(=O)N1CCC[C@H]1C(=O)N[C@@H](C)C(=O)O)[C@@H](C)O", "note": "[agg 684] (H-NSPFCLE[Cit]TPLGSPDPA-OH)", "values": [{"measurement": "pEC50", "value": "6.92 and 6.89"}]}, {"compound": "CC[C@H](C)[C@H](NC(=O)[C@@H](NC(=O)[C@H](CCCNC(N)=O)NC(=O)[C@H](CC(C)C)NC(=O)[C@@H](NC(=O)[C@@H](NC(=O)[C@H](Cc1ccccc1)NC(=O)[C@@H](NC(=O)[C@H](Cc1c[nH]c2ccccc12)NC(=O)[C@H](CC(C)C)NC(=O)[C@H](CC(C)C)NC(=O)[C@@H](N)[C@@H](C)O)C(C)C)C(C)C)[C@@H](C)O)C(C)C)C(=O)N[C@H](C(=O)N[C@@H](C)C(=O)N[C@@H](C)C(=O)N[C@H](C(=O)N[C@H](C(=O)N[C@H](C(=O)O)C(C)C)[C@@H](C)O)C(C)C)[C@@H](C)O", "note": "[agg 3-20] (H-TLLWVFVTL[Cit]VITAAVTV-OH)", "values": [{"measurement": "pEC50", "value": "4.45 and 4.44"}]}]}
